# Patent publication US12522596B2, “Compounds as GLP-1R agonists” (Terns Pharmaceuticals, Inc., priority 2021, dated 2026)
# pEC50: −log10 of the molar value.
# What was measured:
# [1] = biological target: T1, human GLP-1R receptor (Homo sapiens, UniProt P43220); assay: GLP-1R low expression cell assay (cAMP TR-FRET, CHO-K1_hGLP-1Rlow_clone10); assay type: cell-based; settings: CHO-K1_hGLP-1Rlow_clone10 cells
# T1 construct: expressed in transfected cells
# Procedure: Stable cell lines expressing high and low GLP-1R surface expression were generated in CHO-K1 cells transfected (Fugene 6) with a puromycin selectable DNA plasmid encoding human GLP-1R receptor (accession number: NM_002062.5) under control of an EF1A promoter. Transfected cells were seeded into 24-well plates (9,000 cells/well) containing complete medium and incubated in a humidified incubator at 37° C. with 5% carbon dioxide. After overnight incubation, medium was replaced with complete medium supplemented with puromycin (6 μg/mL) and refreshed every 2-3 days to select for stably transfected cells. Individual pools of selected cells were expanded prior to analysis for responsiveness to GLP-1 control peptide using a TR-FRET assay to detect cAMP (LANCE Ultra CAMP Assay, Perkin Elmer). Briefly, cells were collected in Versene solution, plated in 384-well plates (1,000 cells/well) and combined with serially diluted GLP-1R control peptide (10 nL) using an acoustic dispenser (ECHO). Plates were incubated for 30 minutes at 25° C. prior to the addition of EU-CAMP tracer (5 μL) and Ulight-anti-cAMP (5 μL) reagents to each well, followed by 15 minutes incubation at 25° C. TR-FRET signal was detected using an En Vision Multimode Plate Reader (excitation=320 nm; emission=615 and 655 nm). Dose-response curves were used to generate EC50 values as a measure of responsiveness to the GLP-1R control peptide. Selected cell lines were monitored for responsiveness over multiple passages to ensure stability. […] Briefly, GLP-1R expression was analyzed by flow cytometry using a fluorescein-labeled Exendin-4 peptide fluorescent probe (FLEX). Cells were harvested in Versene solution and washed 3-times with PBS+0.5% BSA before incubation with FLEX reagent (10 μM) for 2 hours at room temperature. After incubation, cells were washed 3-times in PBS+0.5% BSA before final resuspension in PBS prior to analysis by flow cytometry to measure FLEX mean fluorescence intensity (MFI) as a measure of GLP-1R expression on the cell surface.
# For compound testing in the CHO-K1_hGLP-1Rlow_clone10 cell line, cells were seeded in 384-well plates (1,000 cells/well). Test compounds were serially diluted in DMSO (10-point, 3-fold dilution), added to wells using an ECHO dispenser (10 nL/well) and plates were centrifuged for 1 min and agitated for 2 min at room temperature prior to 30-minute incubation at 25° C. After incubation, Eu-CAMP (5 μL) and Ulight-anti-cAMP (5 μL) reagents were added to each well, followed by centrifugation for 1 minute, agitation for 2 minutes at room temperature, and final incubation of the plates at 25° C. for 15 minutes. Plates were read using an EnVision microplate reader (excitation=320 nm; emission=615 and 655 nm). Dose-response curves were generated from duplicate wells based on percent activation calculated relative to a control GLP-1 peptide agonist that was run in parallel. EC50 values were determined by fitting percent activation as a function of compound concentration using the Hill equation (XLfit).
# Stable cell lines expressing high and low GLP-1R surface expression were generated in CHO-K1 cells transfected (Fugene 6) with a puromycin selectable DNA plasmid encoding human GLP-1R receptor (accession number: NM_002062.5) under control of an EF1A promoter. Transfected cells were seeded into 24-well plates (9,000 cells/well) containing complete medium and incubated in a humidified incubator at 37° C. with 5% carbon dioxide. After overnight incubation, medium was replaced with complete medium supplemented with puromycin (6 μg/mL) and refreshed every 2-3 days to select for stably transfected cells. Individual pools of selected cells were expanded prior to analysis for responsiveness to GLP-1 control peptide using a TR-FRET assay to detect cAMP (LANCE Ultra CAMP Assay, Perkin Elmer).
# [2] = system: rat hepatocytes; assay: Metabolic stability in rat hepatocytes; assay type: in vitro ADME
# In short: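 Compounds at 1 μM (0.1% DMSO) were incubated with 1×10^6 cells/mL cryopreserved rat or human hepatocytes in DMEM at 37°C for 0–240 min. Parent remaining was measured by LC-MS/MS; k from semi-log decline gave t1/2 and CLint, with CLhep predicted by the well-stirred model.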
# T1 sequence (P43220 24-463): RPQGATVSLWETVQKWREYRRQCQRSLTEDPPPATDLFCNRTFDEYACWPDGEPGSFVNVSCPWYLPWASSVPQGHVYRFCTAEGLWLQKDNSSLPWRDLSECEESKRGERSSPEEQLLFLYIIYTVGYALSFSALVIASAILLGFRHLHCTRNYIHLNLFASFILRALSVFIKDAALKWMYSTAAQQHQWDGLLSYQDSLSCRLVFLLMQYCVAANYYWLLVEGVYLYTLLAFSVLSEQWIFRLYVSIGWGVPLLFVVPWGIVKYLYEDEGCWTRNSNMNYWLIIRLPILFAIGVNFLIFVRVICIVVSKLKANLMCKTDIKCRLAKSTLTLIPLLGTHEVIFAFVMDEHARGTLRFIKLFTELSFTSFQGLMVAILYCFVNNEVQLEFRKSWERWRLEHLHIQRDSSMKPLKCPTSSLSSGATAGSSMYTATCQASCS
Compound,pEC50 [1],CLint relative to reference standard [2],Half-life relative to reference [2]
Cc1ncsc1Cn1c(CN2CCC(c3cccc(OCc4ccc(C#N)cc4F)n3)CC2)nc2ccc(C(=O)O)cc21 [Compound 4],8.60,significantly lower,significantly higher
N#Cc1ccc(COc2cccc(C3CCN(Cc4nc5ccc(C(=O)O)cc5n4Cc4cncs4)CC3)n2)c(F)c1 [Compound 2],8.51,not significantly different,–

# Next, values leading:
pEC50 [1],CLint relative to reference standard [2],Half-life relative to reference [2],Compound
9.22,significantly lower,significantly higher,CC1(c2ccc(C#N)cc2F)Oc2cccc(C3CCN(Cc4nc5ccc(C(=O)O)cc5n4Cc4cncs4)CC3)c2O1 (centres unmarked) [Compound 31]
8.77,significantly lower,significantly higher,N#Cc1ccc(COc2cccc(N3CCN(Cc4nc5ccc(C(=O)O)cc5n4Cc4cncs4)CC3)n2)c(F)c1 [Compound 30]
8.03,significantly lower,significantly higher,N#Cc1ccc(COc2ccnc(C3CCN(Cc4nc5ccc(C(=O)O)cc5n4Cc4cncs4)CC3)n2)c(F)c1 [Compound 20]
